Results on 6 molecules are retold here after paper PMC8351594, “Design of Novel Amphipathic α-Helical Antimicrobial Peptides with No Toxicity as Therapeutics against the Antibiotic-Resistant Gram-Negative Bacterial Pathogen, Acinetobacter Baumannii” (Journal of medicinal chemistry and drug design, 2019).

In brackets after ≈: the same amount, converted by molar mass. Square brackets hold non-standard residues; d marks the D form. Peptide text beside a SMILES is read from it. Dab = NCC[C@H](N)C(=O)O

Holding throughout (conditions): Mueller-Hinton medium, 37°C, 24 h, inoculum 5 × 10^5 CFU/mL; MIC based on three sets of determinations
Assay [1] relates to Acinetobacter baumannii MB9952. The method, then:
(§1) The A. baumannii strains used in this study consisted of seven strains resistant to Polymyxin B and Colistin (antibiotics of last resort) obtained from MERCK (M89941, M89949, M89951, M89952, M89953, M89955 and M89963). The MICGM in this case is the geometric mean MIC from the seven Acinetobacter baumannii strains used in this study.
(§2) The minimal inhibitory concentration (MIC) is defined as the lowest peptide concentration that inhibited bacterial growth. MICs were measured by a standard microtiter dilution method in Mueller Hinton (MH) medium. Briefly, cells were grown overnight at 37°C in MH broth and were diluted in the same medium. […] The plates were incubated at 37°C for 24h, and the MICs were determined. The MICGM is the geometric mean of the number of MIC values.

The test system of assay [2] is Acinetobacter baumannii MB9963. The method, then:
as §1, §2

The subject of assay [3] is Acinetobacter baumannii MB9951. The protocol: as §1, §2
Assay [4] deals with Acinetobacter baumannii MB9953. The method, then: as §1, §2
The test system of assay [5] is Acinetobacter baumannii MB9941. The method, then:
as §1, §2

In assay [6] the test system is Acinetobacter baumannii MB9955. The method, then: as §1, §2
Assay [7] has as its system Acinetobacter baumannii MB9949. The protocol:
as §1, §2

In the case of `CC(=O)N[C@H](CCCCN)C(=O)N[C@H](CC(C)C)C(=O)N[C@@H](CCN)C(=O)N[C@H](CO)C(=O)N[C@H](CC(C)C)C(=O)N[C@H](CC(C)C)C(=O)N[C@@H](CCN)C(=O)N[C@@H](C(=O)N[C@H](CC(C)C)C(=O)N[C@H](CO)C(=O)N[C@H](C)C(=O)N[C@H](C)C(=O)N[C@H](CCCCN)C(=O)N[C@@H](CCN)C(=O)N[C@@H](CCN)C(=O)N[C@H](CCCCN)C(=O)N[C@H](CC(C)C)C(=O)N[C@H](C)C(=O)N[C@@H](C(=O)N[C@H](CC(C)C)C(=O)N[C@H](CC(C)C)C(=O)N[C@@H](CCN)C(=O)N[C@H](C)C(=O)N[C@H](CC(C)C)C(=O)N[C@H](CO)C(=O)N[C@@H](CCN)C(N)=O)[C@H](C)O)[C@H](C)O` [D89(Lys^1-6 Dab-2)] (Ac-[dK][dL][Dab][dS][dL][dL][Dab][dT][dL][dS][dA][dA][dK][Dab][Dab][dK][dL][dA][dT][dL][dL][Dab][dA][dL][dS][Dab]-NH2), the “MIC MB9952” value in assay [1] is 0.7 µM (≈ 1.89 µg/mL). Also, in assay [2], the “MIC MB9963” value came to 0.7 µM (≈ 1.89 µg/mL). Besides, the “MIC MB9951” value in assay [3] was found to be 0.7 µM (≈ 1.89 µg/mL). In addition, the “MIC MB9953” value in assay [4] was determined as 0.7 µM (≈ 1.89 µg/mL). Further, the “MIC MB9941” value in assay [5] was 0.7 µM (≈ 1.89 µg/mL). For the same molecule, in assay [6], the “MIC MB9955” value worked out at 0.7 µM (≈ 1.89 µg/mL). Moreover, in assay [7], the “MIC MB9949” value came to 0.7 µM (≈ 1.89 µg/mL).
Consider `CC(=O)N[C@H](CCCCN)C(=O)N[C@H](CC(C)C)C(=O)N[C@@H](CCN)C(=O)N[C@H](CO)C(=O)N[C@H](CC(C)C)C(=O)N[C@H](CC(C)C)C(=O)N[C@@H](CCN)C(=O)N[C@@H](C(=O)N[C@H](CC(C)C)C(=O)N[C@H](CO)C(=O)N[C@@H](CCN)C(=O)N[C@H](C)C(=O)N[C@H](CCCCN)C(=O)N[C@H](C)C(=O)N[C@H](C)C(=O)N[C@H](CCCCN)C(=O)N[C@H](CC(C)C)C(=O)N[C@@H](CCN)C(=O)N[C@@H](C(=O)N[C@H](CC(C)C)C(=O)N[C@H](CC(C)C)C(=O)N[C@@H](CCN)C(=O)N[C@H](C)C(=O)N[C@H](CC(C)C)C(=O)N[C@H](CO)C(=O)N[C@@H](CCN)C(N)=O)[C@H](C)O)[C@H](C)O` [D86(Lys^1-6 Dab-1)] (Ac-[dK][dL][Dab][dS][dL][dL][Dab][dT][dL][dS][Dab][dA][dK][dA][dA][dK][dL][Dab][dT][dL][dL][Dab][dA][dL][dS][Dab]-NH2), for which the “MIC MB9952” value in assay [1] was 0.8 µM (≈ 2.16 µg/mL). In assay [2], the “MIC MB9963” value worked out at 0.8 µM (≈ 2.16 µg/mL). For the same molecule, the “MIC MB9951” value in assay [3] stood at 0.8 µM (≈ 2.16 µg/mL). Also, in assay [4], the “MIC MB9953” value was determined as 0.8 µM (≈ 2.16 µg/mL). For the same molecule, the “MIC MB9941” value in assay [5] is 1.5 µM (≈ 4.05 µg/mL). For the same molecule, in assay [6], the “MIC MB9955” value was 0.8 µM (≈ 2.16 µg/mL). For the same molecule, in assay [7], the “MIC MB9949” value worked out at 0.8 µM (≈ 2.16 µg/mL).
`CC(=O)N[C@H](CCCCN)C(=O)N[C@H](CC(C)C)C(=O)N[C@H](CCCCN)C(=O)N[C@H](CO)C(=O)N[C@H](CC(C)C)C(=O)N[C@H](CC(C)C)C(=O)N[C@H](CCCCN)C(=O)N[C@@H](C(=O)N[C@H](CC(C)C)C(=O)N[C@H](CO)C(=O)N[C@H](CCCCN)C(=O)N[C@H](C)C(=O)N[C@H](CCCCN)C(=O)N[C@H](C)C(=O)N[C@H](C)C(=O)N[C@H](CCCCN)C(=O)N[C@H](CC(C)C)C(=O)N[C@H](CCCCN)C(=O)N[C@@H](C(=O)N[C@H](CC(C)C)C(=O)N[C@H](CC(C)C)C(=O)N[C@H](CCCCN)C(=O)N[C@H](C)C(=O)N[C@H](CC(C)C)C(=O)N[C@H](CO)C(=O)N[C@H](CCCCN)C(N)=O)[C@H](C)O)[C@H](C)O` [D84(Lys^1-6 Lys-1)] (Ac-[dK][dL][dK][dS][dL][dL][dK][dT][dL][dS][dK][dA][dK][dA][dA][dK][dL][dK][dT][dL][dL][dK][dA][dL][dS][dK]-NH2): the “MIC MB9952” value in assay [1] amounted to 0.7 µM (≈ 2.01 µg/mL). Further, the “MIC MB9963” value in assay [2] stood at 0.7 µM (≈ 2.01 µg/mL). For the same molecule, in assay [3], the “MIC MB9951” value worked out at 0.3 µM (≈ 0.86 µg/mL). Moreover, the “MIC MB9953” value in assay [4] is 0.7 µM (≈ 2.01 µg/mL). Further, the “MIC MB9941” value in assay [5] was found to be 0.3 µM (≈ 0.86 µg/mL). In assay [6], the “MIC MB9955” value stood at 0.3 µM (≈ 0.86 µg/mL). Besides, the “MIC MB9949” value in assay [7] is 0.7 µM (≈ 2.01 µg/mL).
As to `CC(=O)N[C@H](CCCCN)C(=O)N[C@H](CC(C)C)C(=O)N[C@@H](CCN)C(=O)N[C@H](CO)C(=O)N[C@H](CC(C)C)C(=O)N[C@H](CC(C)C)C(=O)N[C@@H](CCN)C(=O)N[C@@H](C(=O)N[C@H](CC(C)C)C(=O)N[C@H](CO)C(=O)N[C@H](C)C(=O)N[C@H](C)C(=O)N[C@H](CCCCN)C(=O)N[C@@H](CCN)C(=O)N[C@@H](CCN)C(=O)N[C@H](CCCCN)C(=O)N[C@H](CC(C)C)C(=O)N[C@H](C)C(=O)N[C@@H](C(=O)N[C@H](CC(C)C)C(=O)N[C@H](CC(C)C)C(=O)N[C@@H](CCN)C(=O)N[C@H](C)C(=O)N[C@H](CC(C)C)C(=O)N[C@H](CO)C(=O)N[C@H](CO)C(N)=O)[C@H](C)O)[C@H](C)O` [D104(Lys^1Ser^26-5 Dab-2)] (Ac-[dK][dL][Dab][dS][dL][dL][Dab][dT][dL][dS][dA][dA][dK][Dab][Dab][dK][dL][dA][dT][dL][dL][Dab][dA][dL][dS][dS]-NH2), the “MIC MB9952” value in assay [1] is 0.7 µM (≈ 1.88 µg/mL). The “MIC MB9963” value in assay [2] worked out at 0.7 µM (≈ 1.88 µg/mL). In addition, in assay [3], the “MIC MB9951” value stood at 0.7 µM (≈ 1.88 µg/mL). For the same molecule, in assay [4], the “MIC MB9953” value was found to be 1.5 µM (≈ 4.03 µg/mL). For the same molecule, in assay [5], the “MIC MB9941” value was found to be 0.7 µM (≈ 1.88 µg/mL). Moreover, the “MIC MB9955” value in assay [6] amounted to 0.7 µM (≈ 1.88 µg/mL). For the same molecule, the “MIC MB9949” value in assay [7] was found to be 0.7 µM (≈ 1.88 µg/mL).
Regarding `CC(=O)N[C@H](CCCCN)C(=O)N[C@H](CC(C)C)C(=O)N[C@H](CCCCN)C(=O)N[C@H](CO)C(=O)N[C@H](CC(C)C)C(=O)N[C@H](CC(C)C)C(=O)N[C@H](CCCCN)C(=O)N[C@@H](C(=O)N[C@H](CC(C)C)C(=O)N[C@H](CO)C(=O)N[C@H](CCCCN)C(=O)N[C@H](C)C(=O)N[C@H](CCCCN)C(=O)N[C@H](C)C(=O)N[C@H](C)C(=O)N[C@H](CCCCN)C(=O)N[C@H](CC(C)C)C(=O)N[C@H](CCCCN)C(=O)N[C@@H](C(=O)N[C@H](CC(C)C)C(=O)N[C@H](CC(C)C)C(=O)N[C@H](CCCCN)C(=O)N[C@H](C)C(=O)N[C@H](CC(C)C)C(=O)N[C@H](CO)C(=O)N[C@H](CO)C(N)=O)[C@H](C)O)[C@H](C)O` [D101(Lys^1Ser^26-5 Lys-1)] (Ac-[dK][dL][dK][dS][dL][dL][dK][dT][dL][dS][dK][dA][dK][dA][dA][dK][dL][dK][dT][dL][dL][dK][dA][dL][dS][dS]-NH2), the “MIC MB9952” value in assay [1] was determined as 0.7 µM (≈ 1.98 µg/mL). Further, the “MIC MB9963” value in assay [2] is 0.7 µM (≈ 1.98 µg/mL). Besides, the “MIC MB9951” value in assay [3] is 0.7 µM (≈ 1.98 µg/mL). Moreover, the “MIC MB9953” value in assay [4] came to 1.5 µM (≈ 4.24 µg/mL). In addition, the “MIC MB9941” value in assay [5] was found to be 0.7 µM (≈ 1.98 µg/mL). In addition, the “MIC MB9955” value in assay [6] came to 0.7 µM (≈ 1.98 µg/mL). For the same molecule, the “MIC MB9949” value in assay [7] came to 0.7 µM (≈ 1.98 µg/mL).
With `CC(=O)N[C@H](CCCCN)C(=O)N[C@H](CC(C)C)C(=O)N[C@H](CCCCN)C(=O)N[C@H](CO)C(=O)N[C@H](CC(C)C)C(=O)N[C@H](CC(C)C)C(=O)N[C@H](CCCCN)C(=O)N[C@@H](C(=O)N[C@H](CC(C)C)C(=O)N[C@H](CO)C(=O)N[C@H](C)C(=O)N[C@H](C)C(=O)N[C@H](CCCCN)C(=O)N[C@H](CCCCN)C(=O)N[C@H](CCCCN)C(=O)N[C@H](CCCCN)C(=O)N[C@H](CC(C)C)C(=O)N[C@H](C)C(=O)N[C@@H](C(=O)N[C@H](CC(C)C)C(=O)N[C@H](CC(C)C)C(=O)N[C@H](CCCCN)C(=O)N[C@H](C)C(=O)N[C@H](CC(C)C)C(=O)N[C@H](CO)C(=O)N[C@H](CCCCN)C(N)=O)[C@H](C)O)[C@H](C)O` [D88(Lys^1-6 Lys-2)] (Ac-[dK][dL][dK][dS][dL][dL][dK][dT][dL][dS][dA][dA][dK][dK][dK][dK][dL][dA][dT][dL][dL][dK][dA][dL][dS][dK]-NH2), the “MIC MB9952” value in assay [1] turned out to be 0.3 µM (≈ 0.86 µg/mL). In addition, the “MIC MB9963” value in assay [2] was 0.4 µM (≈ 1.15 µg/mL). Further, the “MIC MB9951” value in assay [3] was determined as 0.3 µM (≈ 0.86 µg/mL). Further, in assay [4], the “MIC MB9953” value came out at 0.3 µM (≈ 0.86 µg/mL). Also, the “MIC MB9941” value in assay [5] was found to be 0.7 µM (≈ 2.01 µg/mL). Moreover, the “MIC MB9955” value in assay [6] was determined as 0.3 µM (≈ 0.86 µg/mL). In addition, in assay [7], the “MIC MB9949” value is 0.7 µM (≈ 2.01 µg/mL).
